# Data as given in PubChem BioAssay (NCI).
#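 Tested at 5 concentrations; 48 h exposure; 96-well plates; endpoints linearly interpolated, else capped at highest concentration. GI50: concentration for 50% inhibition of growth. At the TGI there is no net growth.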
# What was measured:
# Test in all cases: inhibition of tumour cell growth, NCI panel, 48 h
# [1] = tested on: NCI/ADR-RES ovarian
# [2] = tested on: U251 CNS
# [3] = tested on: OVCAR-8 ovarian
# [4] = tested on: UACC-257 melanoma
# [5] = tested on: MCF7 breast
# [6] = tested on: SW-620 colon
# [7] = tested on: CAKI-1 renal
# [8] = tested on: SF-539 CNS
# [9] = tested on: UO-31 renal
# [10] = tested on: M14 melanoma
# [11] = tested on: 786-0 renal
# [12] = tested on: HCC-2998 colon
# [13] = tested on: SF-268 CNS
# [14] = tested on: K-562 leukemia
# [15] = tested on: MALME-3M melanoma
# [16] = tested on: A549 NSCLC
# [17] = tested on: COLO 205 colon
# [18] = tested on: HT29 colon
# [19] = tested on: SNB-19 CNS
# [20] = tested on: DU-145 prostate
# [21] = tested on: T-47D breast
# [22] = tested on: SNB-75 CNS
# [23] = tested on: NCI-H23 lung
# [24] = tested on: SN12C renal
# [25] = tested on: HCT-116 colon
# [26] = tested on: ACHN renal
# [27] = tested on: HOP-92 NSCLC
# [28] = tested on: MDA-MB-231 breast
# [29] = tested on: SK-OV-3 ovarian
# [30] = tested on: LOX IMVI melanoma
# [31] = tested on: EKVX NSCLC
# [32] = tested on: OVCAR-5 ovarian
# [33] = tested on: SK-MEL-28 melanoma
# [34] = tested on: PC-3 prostate
# [35] = tested on: CCRF-CEM leukemia
# [36] = tested on: RPMI-8226 leukemia
# [37] = tested on: RXF 393 renal
# [38] = tested on: HL-60(TB) leukemia
# [39] = tested on: SK-MEL-2 melanoma
# [40] = tested on: NCI-H226 lung
# [41] = tested on: MOLT-4 leukemia
# [42] = tested on: SR leukemia
# [43] = tested on: HS 578T breast
# [44] = tested on: A498 renal
# [45] = tested on: NCI-H460 lung
# [46] = tested on: SF-295 CNS
# [47] = tested on: IGROV1 ovarian
# [48] = tested on: HCT-15 colon
# [49] = tested on: KM12 colon
# [50] = tested on: NCI-H522 lung
# [51] = tested on: UACC-62 melanoma
# [52] = tested on: BT-549 breast
# [53] = tested on: MDA-MB-435
# [54] = tested on: OVCAR-3 ovarian
# [55] = tested on: TK-10 renal
# [56] = tested on: SK-MEL-5 melanoma
# [57] = tested on: HOP-62 NSCLC
compound,measurement,setting,value
CC(C)(C)c1ccc(CC(=O)Nc2sc3c(c2C(N)=O)CCC(=O)C3)cc1,GI50,[1],0.621 µM
same,TGI,[1],5.11 µM
same,GI50,[2],0.389 µM
same,TGI,[2],2.25 µM
same,GI50,[3],0.458 µM
same,TGI,[3],24.7 µM
same,GI50,[4],2.04 µM
same,TGI,[4],5.86 µM
same,GI50,[5],0.433 µM
same,TGI,[5],6.66 µM
same,GI50,[6],0.386 µM
same,TGI,[6],2.16 µM
same,GI50,[7],0.395 µM
same,TGI,[7],3.01 µM
same,GI50,[8],0.421 µM
same,TGI,[8],1.67 µM
same,GI50,[9],0.43 µM
same,TGI,[9],1.68 µM
same,GI50,[10],0.435 µM
same,TGI,[10],2.69 µM
same,GI50,[11],1.39 µM
same,TGI,[11],11.8 µM
same,GI50,[12],1.49 µM
same,TGI,[12],3.88 µM
same,GI50,[13],2.82 µM
same,TGI,[13],12.7 µM
same,GI50,[14],0.233 µM
same,TGI,[14],4.94 µM
same,GI50,[15],0.692 µM
same,TGI,[15],2.35 µM
same,GI50,[16],1.99 µM
same,TGI,[16],6.92 µM
same,GI50,[17],1.33 µM
same,TGI,[17],3.02 µM
same,GI50,[18],0.871 µM
same,TGI,[18],8.43 µM
same,GI50,[19],1.09 µM
same,TGI,[19],4.69 µM
same,GI50,[20],3.17 µM
same,TGI,[20],14 µM
same,GI50,[21],0.368 µM
same,TGI,[21],2.67 µM
same,GI50,[22],1.3 µM
same,TGI,[22],4.28 µM
same,GI50,[23],0.34 µM
same,TGI,[23],3.59 µM
same,GI50,[24],1.04 µM
same,TGI,[24],3.91 µM
same,GI50,[25],0.26 µM
same,TGI,[25],1.29 µM
same,GI50,[26],0.374 µM
same,TGI,[26],1.31 µM
same,GI50,[27],0.464 µM
same,TGI,[27],1.85 µM
same,GI50,[28],1.17 µM
same,TGI,[28],3.29 µM
same,GI50,[29],2.77 µM
same,TGI,[29],8.04 µM
same,GI50,[30],0.46 µM
same,TGI,[30],3.41 µM
same,GI50,[31],0.549 µM
same,TGI,[31],3.54 µM
same,GI50,[32],0.901 µM
same,TGI,[32],2.99 µM
same,GI50,[33],1.38 µM
same,TGI,[33],3.16 µM
same,GI50,[34],0.207 µM
same,TGI,[34],1.9 µM
same,GI50,[35],0.137 µM
same,TGI,[35],3.62 µM
same,GI50,[36],0.221 µM
same,TGI,[36],0.691 µM
same,GI50,[37],0.594 µM
same,TGI,[37],1.98 µM
same,GI50,[38],0.423 µM
same,TGI,[38],3.11 µM
same,GI50,[39],2.29 µM
same,TGI,[39],6.64 µM
same,GI50,[40],1.7 µM
same,TGI,[40],4.14 µM
same,GI50,[41],0.569 µM
same,TGI,[41],8.21 µM
same,GI50,[42],0.132 µM
same,GI50,[43],1.98 µM
same,TGI,[43],10.9 µM
same,GI50,[44],2.05 µM
same,TGI,[44],6.97 µM
same,GI50,[45],1.03 µM
same,TGI,[45],8.06 µM
same,GI50,[46],1.18 µM
same,TGI,[46],3.18 µM
same,GI50,[47],0.532 µM
same,TGI,[47],3.1 µM
same,GI50,[48],0.295 µM
same,TGI,[48],2.11 µM
same,GI50,[49],0.88 µM
same,TGI,[49],3.16 µM
same,GI50,[50],0.283 µM
same,TGI,[50],2.59 µM
same,GI50,[51],0.54 µM
same,TGI,[51],2.07 µM
same,GI50,[52],0.48 µM
same,TGI,[52],2.4 µM
same,GI50,[53],1.3 µM
same,TGI,[53],4.21 µM
same,GI50,[54],0.541 µM
same,TGI,[54],2.09 µM
same,GI50,[55],0.473 µM
same,TGI,[55],8.48 µM
same,GI50,[56],1.23 µM
same,TGI,[56],2.58 µM
same,GI50,[57],2.69 µM
same,TGI,[57],13.2 µM
